Assay results: the supplement of paper PMC10307832

What was measured:
Test in all cases: relative viability (nuclei count vs DMSO), 5 days (fraction); higher = more cells survive
CAL-12T = tested on: CAL-12T
Procedure, shortened: (§1)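 Relative viability was taken as the ratio of nuclei in treated wells to nuclei in vehicle wells. Lung cancer cell lines in 1536-well plates received compounds by pin tool one day after seeding, either one drug alone or a fixed anchor-drug dose plus five library-drug doses (not always all listed) in √10 steps. Nuclei were counted on 4× images after 5 days of treatment, and values are medians of duplicate plates.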

COR-L 105 = tested on: COR-L 105
Procedure, shortened: as §1

H3255 = tested on: H3255
Procedure, shortened: as §1

HARA = tested on: HARA
Procedure, shortened: as §1

HCC-15 = tested on: HCC-15
Procedure, shortened: as §1

HCC-366 = tested on: HCC-366
Procedure, shortened: as §1

LC-2-ad = tested on: LC-2-ad
Procedure, shortened: as §1

LU99A = tested on: LU99A
Procedure, shortened: as §1

NCI-H1563 = tested on: NCI-H1563
Procedure, shortened: as §1

NCI-H1666 = tested on: NCI-H1666
Procedure, shortened: as §1

NCI-H1734 = tested on: NCI-H1734
Procedure, shortened: as §1

NCI-H1944 = tested on: NCI-H1944
Procedure, shortened: as §1

NCI-H1975 = tested on: NCI-H1975
Procedure, shortened: as §1

NCI-H1993 = tested on: NCI-H1993
Procedure, shortened: as §1

NCI-H3122 = tested on: NCI-H3122
Procedure, shortened: as §1

NCI-H647 = tested on: NCI-H647
Procedure, shortened: as §1

NCI-H838 = tested on: NCI-H838
Procedure, shortened: as §1

PC-14 = tested on: PC-14
Procedure, shortened: as §1

PC-3 [JPC-3] = tested on: PC-3 [JPC-3]
Procedure, shortened: as §1

SK-LU-1 = tested on: SK-LU-1
Procedure, shortened: as §1

In the case of COCC1(CO)C(=O)C2CCN1CC2 (configuration not stated) [PRIMA-1MET] + C[C@@H](Oc1cc(-c2cnn(C3CCNCC3)c2)cnc1N)c1c(Cl)ccc(F)c1Cl [Crizotinib] (partner 1 µM), the relative viability (CAL-12T; first compound 0.2 µM) is reported as 0.788, the relative viability (CAL-12T; first compound 0.6325 µM) is reported as 0.834 and the relative viability (CAL-12T; first compound 2 µM) is reported as 0.687. The relative viability (CAL-12T; first compound 6.325 µM) was 0.661, the relative viability (CAL-12T; first compound 20 µM) was 0.283 and the relative viability (COR-L 105; first compound 0.2 µM) was 0.918. The relative viability (COR-L 105; first compound 0.6325 µM) was 0.664, the relative viability (COR-L 105; first compound 2 µM) was 0.74 and the relative viability (COR-L 105; first compound 6.325 µM) was 0.782. For the same compound, the relative viability (COR-L 105; first compound 20 µM) was 0.254, the relative viability (H3255; first compound 0.2 µM) was 0.898 and the relative viability (H3255; first compound 0.6325 µM) was 0.682. The relative viability (H3255; first compound 2 µM) was 0.77, the relative viability (H3255; first compound 6.325 µM) was 0.991 and the relative viability (H3255; first compound 20 µM) was 0.898. The relative viability (HARA; first compound 0.2 µM) was 1.17, the relative viability (HARA; first compound 0.6325 µM) was 1.04 and the relative viability (HARA; first compound 6.325 µM) was 0.987. The relative viability (HARA; first compound 20 µM) was 0.99, the relative viability (HCC-15; first compound 0.2 µM) was 0.925 and the relative viability (HCC-15; first compound 0.6325 µM) was 0.786. It also gave a relative viability (HCC-15; first compound 2 µM) of 0.802, a relative viability (HCC-15; first compound 6.325 µM) of 0.807 and a relative viability (HCC-15; first compound 20 µM) of 0.706. For the same compound, the relative viability (HCC-366; first compound 0.2 µM) was 0.702, the relative viability (HCC-366; first compound 0.6325 µM) was 0.515 and the relative viability (HCC-366; first compound 6.325 µM) was 0.506. It also gave a relative viability (HCC-366; first compound 20 µM) of 0.009, a relative viability (LC-2-ad; first compound 0.2 µM) of 0.484 and a relative viability (LC-2-ad; first compound 0.6325 µM) of 0.434. For the same compound, the relative viability (LC-2-ad; first compound 2 µM) was 0.398, the relative viability (LC-2-ad; first compound 6.325 µM) was 0.39 and the relative viability (LC-2-ad; first compound 20 µM) was 0.382. It also gave a relative viability (LU99A; first compound 0.2 µM) of 0.564, a relative viability (LU99A; first compound 0.6325 µM) of 0.475 and a relative viability (LU99A; first compound 2 µM) of 0.576. The relative viability (LU99A; first compound 6.325 µM) was 0.501, the relative viability (LU99A; first compound 20 µM) was 0.0737 and the relative viability (NCI-H1563; first compound 0.2 µM) was 0.887. It also gave a relative viability (NCI-H1563; first compound 0.6325 µM) of 0.806, a relative viability (NCI-H1563; first compound 2 µM) of 0.868 and a relative viability (NCI-H1563; first compound 6.325 µM) of 0.843. It also gave a relative viability (NCI-H1563; first compound 20 µM) of 0.262, a relative viability (NCI-H1666; first compound 0.2 µM) of 1.15 and a relative viability (NCI-H1666; first compound 0.6325 µM) of 0.9. It also gave a relative viability (NCI-H1666; first compound 2 µM) of 0.987, a relative viability (NCI-H1666; first compound 6.325 µM) of 1.25 and a relative viability (NCI-H1666; first compound 20 µM) of 0.443. The relative viability (NCI-H1734; first compound 0.2 µM) was 0.696, the relative viability (NCI-H1734; first compound 0.6325 µM) was 0.573 and the relative viability (NCI-H1734; first compound 2 µM) was 0.614. The relative viability (NCI-H1734; first compound 6.325 µM) was 0.677, the relative viability (NCI-H1734; first compound 20 µM) was 0.171 and the relative viability (NCI-H1944; first compound 0.2 µM) was 1.36. It also gave a relative viability (NCI-H1944; first compound 0.6325 µM) of 0.817, a relative viability (NCI-H1944; first compound 6.325 µM) of 1.09 and a relative viability (NCI-H1944; first compound 20 µM) of 1.06. For the same compound, the relative viability (NCI-H1975; first compound 0.2 µM) was 1.12, the relative viability (NCI-H1975; first compound 0.6325 µM) was 0.962 and the relative viability (NCI-H1975; first compound 2 µM) was 0.938. It also gave a relative viability (NCI-H1975; first compound 6.325 µM) of 0.939, a relative viability (NCI-H1975; first compound 20 µM) of 0.828 and a relative viability (NCI-H1993; first compound 0.2 µM) of 1.14. It also gave a relative viability (NCI-H1993; first compound 0.6325 µM) of 0.892, a relative viability (NCI-H1993; first compound 2 µM) of 0.738 and a relative viability (NCI-H1993; first compound 6.325 µM) of 0.883. It also gave a relative viability (NCI-H1993; first compound 20 µM) of 0.822, a relative viability (NCI-H3122; first compound 0.2 µM) of 0.317 and a relative viability (NCI-H3122; first compound 0.6325 µM) of 0.25. For the same compound, the relative viability (NCI-H3122; first compound 2 µM) was 0.259, the relative viability (NCI-H3122; first compound 6.325 µM) was 0.286 and the relative viability (NCI-H3122; first compound 20 µM) was 0.284. It also gave a relative viability (NCI-H647; first compound 0.2 µM) of 1, a relative viability (NCI-H647; first compound 0.6325 µM) of 1.24 and a relative viability (NCI-H647; first compound 2 µM) of 1.09. It also gave a relative viability (NCI-H647; first compound 6.325 µM) of 1.08, a relative viability (NCI-H647; first compound 20 µM) of 0.896 and a relative viability (NCI-H838; first compound 0.2 µM) of 1.06. It also gave a relative viability (NCI-H838; first compound 0.6325 µM) of 0.755, a relative viability (NCI-H838; first compound 2 µM) of 0.793 and a relative viability (NCI-H838; first compound 6.325 µM) of 0.906. For the same compound, the relative viability (NCI-H838; first compound 20 µM) was 0.318, the relative viability (PC-14; first compound 0.2 µM) was 1.06 and the relative viability (PC-14; first compound 0.6325 µM) was 0.852. For the same compound, the relative viability (PC-14; first compound 2 µM) was 0.853, the relative viability (PC-14; first compound 6.325 µM) was 0.975 and the relative viability (PC-14; first compound 20 µM) was 1. It also gave a relative viability (PC-3 [JPC-3]; first compound 0.2 µM) of 0.995, a relative viability (PC-3 [JPC-3]; first compound 0.6325 µM) of 0.911 and a relative viability (PC-3 [JPC-3]; first compound 2 µM) of 0.966. It also gave a relative viability (PC-3 [JPC-3]; first compound 6.325 µM) of 1.07, a relative viability (PC-3 [JPC-3]; first compound 20 µM) of 0.951 and a relative viability (SK-LU-1; first compound 0.2 µM) of 0.93. The relative viability (SK-LU-1; first compound 0.6325 µM) was 0.729, the relative viability (SK-LU-1; first compound 2 µM) was 0.837 and the relative viability (SK-LU-1; first compound 6.325 µM) was 1.09. For the same compound, the relative viability (SK-LU-1; first compound 20 µM) was 0.114.
